Experimental findings from EP0589484A1, “1,2-Ethanediol derivative and salt thereof, process for producing the same, and cerebral function-improving agent comprising the same” (TOYAMA CHEMICAL CO., LTD., priority 1989, dated 1990) are described below.

One series deals with ddY female mouse. Nature of the series: Effect of test compound on hypoxia (antihypoxic activity). The series is classed as in vivo. The following applies: po, read-out: Antihypoxic activity (%). Here is the method:
A test compound dissolved in physiological saline (100 mg/kg) was orally administered to a ddY female mouse (5-6 weeks old, each group consisting of 10 mice). After 1 (or 30 minutes*) hour from the administration, each mouse was placed in a 300-ml glass chamber, and a gas mixture consisting of 4% of oxygen and 96% of nitrogen was passed through the chamber at a rate of 5 liters/min. A time from the start of gas passing to the death of each mouse was measured.
To a control mice group was orally administered only physiological saline.
The antihypoxic activity of the test compound was calculated from the following formula: [formula]

In the next series the test system is ddY male mice. Nature of the series: Acute toxicity. The following applies: 50 mg/kg intravenously, group of 3 ddY male mice. The class given is in vivo, mouse. The text has this: A test compound dissolved in physiological saline was intravenously administered to a group of 3 ddY male mice (5-6 weeks old) to examine the acute toxicity of the test compound.

Where [1] appears, read: 100 mg/kg orally, placed in chamber (4% oxygen, 96% nitrogen) after 1 hour from the administration, survival time relative to control.
The mark [2] stands for this setting: 0.5 h, 100 mg/kg orally, placed in chamber (4% oxygen, 96% nitrogen) after 30 minutes from the administration (values marked *), survival time relative to control.

SMILES strings stand for the structures. Where a name gives a salt, the structure may show the parent alone. Read-outs that look alike come from different tables or passages of the source.

For the compound `CN(C)CCOCC(O)c1cccc(F)c1.Cl` (stereo not shown) [Compound No. 1, 2-[2-(N,N-dimethylamino)ethoxy]-1-(3-fluorophenyl)ethanol hydrochloride], in the series with ddY female mouse (1 h), the response vs control in vivo at 100 mg/kg is 155%. In the series with ddY male mice, the Acute toxicity entry was “no death case”.

Regarding `CN(C)CCOCC(O)c1cccc(C(F)(F)F)c1.Cl` (stereo not shown) [Compound No. 42, 2-[2-(N,N-dimethylamino)ethoxy]-1-(3-trifluoromethylphenyl)ethanol hydrochloride], the response vs control in vivo at 100 mg/kg in the series with ddY female mouse (1 h) was determined as 194%. Also, in the series with ddY male mice, the Acute toxicity result is listed as “no death case”.

On to `CN(C)CCOCC(O)c1ccc(O)cc1.Cl` (stereo not shown) [Compound No. 170, 1-(4-hydroxyphenyl)-2-[2-(N,N-dimethylamino)ethoxy]ethanol hydrochloride], for which the Acute toxicity result with ddY male mice is given as “no death case”.

On to `CN(C)CCOCC(O)c1ccccc1` (stereo not shown) [compound 2], for which the response vs control in vivo at 100 mg/kg in the series with ddY female mouse (setting [1]) was determined as 119%. Also, in the series with ddY male mice, the Acute toxicity entry was “no death case”.

As to `CN(C)CCOC[C@H](O)c1ccccc1` [compound 3], in the series with ddY female mouse (setting [2]), the response vs control in vivo at 100 mg/kg was 245%. Further, in the series on ddY male mice, the Acute toxicity entry was “no death case”.

Take `OC(COCCN1CCOCC1)c1ccccc1` (stereo not shown) [compound 8]: in the series with ddY male mice, the Acute toxicity entry is recorded as “no death case”.

On to `O=C1CCCN1CCOCC(O)c1ccccc1` (stereo not shown) [compound 9], for which the response vs control in vivo at 100 mg/kg in the series with ddY female mouse (setting [1]) stood at 113%. In addition, the Acute toxicity result in the series on ddY male mice is “no death case”.

`Cc1cccc(C(O)COCCN(C)C)c1.Cl` (stereo not shown) [compound 15, 2-[2-(N,N-dimethylamino)ethoxy]-1-(3-methylphenyl)ethanol hydrochloride]: the response vs control in vivo at 100 mg/kg with ddY female mouse (0.5 h) was determined as 194%. For the same compound, in the series on ddY male mice, the Acute toxicity entry is “no death case”.

As for `Cc1ccc(C(O)COCCN(C)C)cc1` (stereo not shown) [compound 16], the response vs control in vivo at 100 mg/kg with ddY female mouse (setting [1]) stood at 116%. For the same compound, in the series on ddY male mice, the Acute toxicity result was “no death case”.

Regarding `Cc1cccc(C(O)COCCN2CCCC2=O)c1` (stereo not shown) [compound 25], in the series on ddY male mice, the Acute toxicity entry is “no death case”.

Turning to `CN(C)CCOCC(O)c1ccc(Cl)cc1` (stereo not shown) [compound 33], the response vs control in vivo at 100 mg/kg in the series on ddY female mouse (setting [2]) turned out to be 224%. Moreover, the Acute toxicity entry with ddY male mice was “no death case”.

As for `COc1ccc(C(O)COCCN(C)C)cc1` (stereo not shown) [compound 44], the Acute toxicity result with ddY male mice was “no death case”.

On to `CSc1ccc(C(O)COCCN(C)C)cc1` (stereo not shown) [compound 46], for which, in the series with ddY female mouse (setting [2]), the response vs control in vivo at 100 mg/kg came to 150%. Further, the Acute toxicity entry in the series on ddY male mice was “no death case”.

Turning to `CN(C)CCOCC(O)c1ccc2c(c1)OCO2` (stereo not shown) [compound 52], the Acute toxicity result in the series with ddY male mice was “no death case”.

In the case of `CN(C)CCOCC(O)c1cccc(Oc2ccccc2)c1` (stereo not shown) [compound 53], the Acute toxicity result in the series with ddY male mice is on record as “no death case”.

For `Cn1cnc(COCC(O)c2ccccc2)c1` (stereo not shown) [compound 119], in the series on ddY female mouse (setting [2]), the response vs control in vivo at 100 mg/kg was 175%. Besides, the Acute toxicity entry with ddY male mice is “no death case”.

Consider `OC(COCc1cccnc1)c1ccccc1` (stereo not shown) [compound 120], for which, in the series with ddY female mouse (setting [2]), the response vs control in vivo at 100 mg/kg amounted to 162%. For the same compound, the Acute toxicity entry in the series with ddY male mice is “no death case”.

On to `OC(COCc1cccnc1)c1cccc(Cl)c1` (stereo not shown) [compound 126], for which, in the series on ddY female mouse (setting [2]), the response vs control in vivo at 100 mg/kg came to 172%. In the series with ddY male mice, the Acute toxicity entry is “no death case”.

For the compound `OC(COCc1c[nH]cn1)c1ccccc1` (stereo not shown) [compound 132], in the series with ddY female mouse (setting [2]), the response vs control in vivo at 100 mg/kg was 133%. Moreover, the Acute toxicity entry with ddY male mice is “no death case”.

Regarding `OC(COCC1CN(Cc2ccccc2)CCO1)c1ccc(Oc2ccccc2)cc1` (stereo not shown) [compound 147], the Acute toxicity result with ddY male mice is listed as “no death case”.

For `OC(COCC1CNCCO1)c1ccccc1` (stereo not shown) [compound 151, 1-phenyl-2-[(morpholin-2-yl)methoxy]ethanol], in the series with ddY female mouse (setting [1]), the response vs control in vivo at 100 mg/kg was 182%. Further, the Acute toxicity entry with ddY male mice is given as “no death case”.

Take `OCC1CCCN1CCOCC(O)c1ccccc1` (stereo not shown) [compound 159]: the Acute toxicity entry with ddY male mice is “no death case”.

For the compound `CN(CCOCC(O)c1ccccc1)C(=O)C1CCC(=O)N1` (stereo not shown) [compound 160], in the series on ddY male mice, the Acute toxicity entry was “no death case”.

Regarding `Cc1cccc(C(O)COCCC2CCNCC2)c1` (stereo not shown) [compound 176], the Acute toxicity result with ddY male mice is “no death case”.

Turning to `CC(=O)OC(COCCN1CCOCC1)c1cccc(C)c1` (stereo not shown) [compound 178, 1-acetoxy-1-(3-methylphenyl)-2-[2-(morpholin-4-yl)ethoxy]ethane], the Acute toxicity result in the series on ddY male mice is reported as “no death case”.

On to `CN(C)CCOCC(O)c1ccc2c(c1)OCCO2` (stereo not shown) [compound 194], for which the Acute toxicity entry in the series on ddY male mice is “no death case”.

In the case of `OC(COCCNC1CC1)c1ccccc1` (stereo not shown) [compound 209], the response vs control in vivo at 100 mg/kg in the series on ddY female mouse (setting [2]) came out at 148%. Moreover, the Acute toxicity result with ddY male mice is listed as “no death case”.

As to `O[C@@H](COC[C@@H]1CNCCO1)c1ccccc1` [compound 219, (1R,2'S)-1-phenyl-2-[(morpholin-2-yl)methoxy]ethanol maleate], the response vs control in vivo at 100 mg/kg in the series with ddY female mouse (setting [2]) amounted to 222%. In addition, the Acute toxicity entry in the series on ddY male mice was “no death case”.

Consider `O[C@H](COC[C@H]1CNCCO1)c1ccccc1` [compound 220, (1S,2'R)-1-phenyl-2-[(morpholin-2-yl)methoxy]ethanol maleate], for which, in the series with ddY female mouse (setting [2]), the response vs control in vivo at 100 mg/kg was 183%. For the same compound, the Acute toxicity result in the series with ddY male mice is given as “no death case”.

For the compound `O[C@@H](COC[C@H]1CNCCO1)c1ccccc1` [compound 221, (1R,2'R)-1-phenyl-2-[(morpholin-2-yl)methoxy]ethanol oxalate], in the series with ddY female mouse (setting [2]), the response vs control in vivo at 100 mg/kg worked out at 183%. In addition, in the series with ddY male mice, the Acute toxicity entry was “no death case”.

`CN(C)CCOCC(O)c1ccc2ccccc2c1.Cl` (stereo not shown) [compound 229, 2-[2-(N,N-dimethylamino)ethoxy]-1-(2-naphthyl)ethanol hydrochloride]: the response vs control in vivo at 100 mg/kg in the series on ddY female mouse (1 h) stood at 123%. In the series with ddY male mice, the Acute toxicity entry is recorded as “no death case”.

In the case of `Cc1ccc2cc(C(O)COCCN(C)C)ccc2c1` (stereo not shown) [compound 235], the Acute toxicity entry in the series with ddY male mice is recorded as “no death case”.

For `COc1ccc2cc(C(O)COCCN(C)C)ccc2c1` (stereo not shown) [compound 236], the response vs control in vivo at 100 mg/kg with ddY female mouse (setting [1]) was 177%. Also, the Acute toxicity entry in the series with ddY male mice is on record as “no death case”.

Turning to `CN(C)CCOCC(O)c1ccc2c(c1)CCCC2` (stereo not shown) [compound 251], in the series on ddY female mouse (setting [2]), the response vs control in vivo at 100 mg/kg is 186%. Also, the Acute toxicity result with ddY male mice is on record as “no death case”.

As for `OC(COCC1CNCCO1)c1ccc2ccccc2c1` (stereo not shown) [compound 256, 1-(2-naphthyl)-2-[(morpholin-2-yl)methoxy]ethanol 1/2 fumarate], the response vs control in vivo at 100 mg/kg with ddY female mouse (setting [1]) was 154%. The Acute toxicity result with ddY male mice was “no death case”.

On to `OC(COCc1cnc[nH]1)c1cccc2ccccc12` (stereo not shown) [compound 279], for which the response vs control in vivo at 100 mg/kg in the series on ddY female mouse (setting [1]) amounted to 198%. In addition, the Acute toxicity result in the series with ddY male mice is on record as “no death case”.

With `Cn1cncc1COCC(O)c1cccc2ccccc12` (stereo not shown) [compound 283, 2-(1-methylimidazol-5-yl)methoxy-1-(1-naphthyl)ethanol], the response vs control in vivo at 100 mg/kg in the series on ddY female mouse (setting [1]) turned out to be 183%. Also, in the series with ddY male mice, the Acute toxicity entry is reported as “no death case”.

`CN(C)CCOCC(O)c1cccnc1` (stereo not shown) [compound 315]: the Acute toxicity result with ddY male mice is “no death case”.

As for `CN(C)CCOCC(O)c1ccoc1` (stereo not shown) [compound 316], the Acute toxicity result with ddY male mice is listed as “no death case”.

Take `Cl.O=C(NCCOCC(O)c1ccc2sccc2c1)c1cccnc1` (stereo not shown) [compound 360, 1-(benzo[b]thiophen-5-yl)-2-[2-(nicotinoylamino)ethoxy]ethanol hydrochloride]: the Acute toxicity entry with ddY male mice is recorded as “no death case”.
